# Experimental data from ChEMBL document CHEMBL1146814, “Amidine derived 1,3-diazabuta-1,3-dienes as potential antibacterial and antifungal agents” (2004).
# The source made the active and inactive calls. No cut-off for these calls is given here.
# Columns and labels:
# [1] = test system: Candida albicans; assay: Antifungal activity against Candida albicans MTCC 183 measured through zone of inhibition; 11-15 mm; format: functional
# [2] = test system: Escherichia coli; assay: Antibacterial activity against Escherichia coli MTCC 42 measured through zone of inhibition; 21-25 mm; format: functional
# [3] = test system: Bacillus subtilis; assay: Antibacterial activity against Bacillus subtilis MTCC 121 measured through zone of inhibition; 16-20 mm; format: functional
# [4] = test system: Bacillus cereus; assay: Antibacterial activity against Bacillus cereus MTCC 1272 measured through zone of inhibition; 11-15 mm; format: functional
# [5] = test system: Staphylococcus aureus; assay: Antibacterial activity against Staphylococcus aureus MTCC 1430 measured through zone of inhibition; 16-20 mm; format: functional
# [6] = test system: Aspergillus niger; assay: Antifungal activity against Aspergillus niger MTCC 404 measured through zone of inhibition; 11-15 mm; format: functional
# [7] = test system: Pseudomonas aeruginosa; assay: Antibacterial activity against Pseudomonas aeruginosa MTCC 1034. measured through zone of inhibition; 21-25 mm; format: functional
# [8] = test system: Bacillus cereus; assay: Antibacterial activity against Bacillus cereus MTCC 1272 measured through zone of inhibition; 16-20 mm; format: functional
# [9] = test system: Pseudomonas aeruginosa; assay: Antibacterial activity against Pseudomonas aeruginosa MTCC 1034. measured through zone of inhibition; 16-20 mm; format: functional
# [10] = test system: Candida albicans; assay: Antifungal activity against Candida albicans MTCC 183 measured through zone of inhibition; Inactive; format: functional, organism-based
# [11] = test system: Staphylococcus aureus; assay: Antibacterial activity against Staphylococcus aureus MTCC 1430 measured through zone of inhibition; 21-25 mm; format: functional
# [12] = test system: Aspergillus niger; assay: Antifungal activity against Aspergillus niger MTCC 404 measured through zone of inhibition; Inactive; format: functional, organism-based
# [13] = test system: Bacillus subtilis; assay: Antibacterial activity against Bacillus subtilis MTCC 121 measured through zone of inhibition; 21-25 mm; format: functional
# [14] = test system: Staphylococcus aureus; assay: Antibacterial activity against Staphylococcus aureus MTCC 1430 measured through zone of inhibition; 11-15 mm; format: functional
# [15] = test system: Candida albicans; assay: Antifungal activity against Candida albicans MTCC 183 measured through zone of inhibition; inactive; format: functional, organism-based
# [16] = test system: Aspergillus niger; assay: Antifungal activity against Aspergillus niger MTCC 404 measured through zone of inhibition; inactive; format: functional, organism-based
# [17] = test system: Escherichia coli; assay: Antibacterial activity against Escherichia coli MTCC 42 measured through zone of inhibition; Inactive; format: functional, organism-based
# [18] = test system: Pseudomonas aeruginosa; assay: Antibacterial activity against Pseudomonas aeruginosa MTCC 1034. measured through zone of inhibition; Inactive; format: functional, organism-based
# [19] = test system: Bacillus subtilis; assay: Antibacterial activity against Bacillus subtilis MTCC 121 measured through zone of inhibition; Inactive; format: functional, organism-based
# [20] = test system: Staphylococcus aureus; assay: Antibacterial activity against Staphylococcus aureus MTCC 1430 measured through zone of inhibition; Inactive; format: functional, organism-based
# [21] = test system: Bacillus cereus; assay: Antibacterial activity against Bacillus cereus MTCC 1272 measured through zone of inhibition; Inactive; format: functional, organism-based
# [22] = test system: Candida albicans; assay: Antifungal activity against Candida albicans MTCC 183 measured through zone of inhibition; 16-20 mm; format: functional
# [23] = test system: Bacillus cereus; assay: Antibacterial activity against Bacillus cereus MTCC 1272 measured through zone of inhibition; 21-25 mm; format: functional
SMILES,Zone of inhibition [2] [mm],Zone of inhibition [3] [mm],Zone of inhibition [6] [mm],Zone of inhibition [8] [mm],Zone of inhibition [9] [mm],Zone of inhibition [10],Zone of inhibition [11] [mm],other results
CS/C(=N\C(=N\c1ccc(Cl)cc1)c1ccccc1)N1CCCCC1,21,16,11,,,,,Zone of inhibition [1]: 11 mm; Zone of inhibition [4]: 11 mm; Zone of inhibition [5]: 16 mm; Zone of inhibition [7]: 21 mm
CS/C(=N\C(=N\c1ccc(C)cc1)c1ccccc1)N1CCCCC1,21,16,,16,16,inactive,21,Zone of inhibition [12]: inactive
CCS/C(=N\C(=N\c1ccc(C)cc1)c1ccccc1)N1CCCCC1,21,,11,16,16,inactive,,Zone of inhibition [13]: 21 mm; Zone of inhibition [14]: 11 mm
O=C(O)c1cn(C2CC2)c2cc(N3CCNCC3)c(F)cc2c1=O [CIPROFLOXACIN],21,,,16,16,,21,Zone of inhibition [13]: 21 mm
CS/C(=N\C(=N\c1ccccc1)c1ccccc1)N1CCCCC1,25,16,,16,16,,,Zone of inhibition [15]: inactive; Zone of inhibition [5]: 16 mm; Zone of inhibition [16]: inactive
C[S+](C)[O-],,,,,,inactive,,Zone of inhibition [17]: inactive; Zone of inhibition [18]: inactive; Zone of inhibition [19]: inactive; Zone of inhibition [20]: inactive; Zone of inhibition [21]: inactive; Zone of inhibition [12]: inactive
CCCCS/C(=N\C(=N\c1ccc(C)cc1)c1ccccc1)N1CCCCC1,21,16,11,16,,,21,Zone of inhibition [7]: 21 mm; Zone of inhibition [22]: 16 mm
CCS/C(=N\C(=N\c1ccccc1)c1ccccc1)N1CCCCC1,21,16,,,16,,21,Zone of inhibition [1]: 11 mm; Zone of inhibition [16]: inactive; Zone of inhibition [23]: 21 mm
